US8816089B2, “Methods for controlling SR protein phosphorylation, and antiviral agents whose active ingredients comprise agents that control SR protein activity” (priority 2003, dated 2014)
Peptide text beside a SMILES is read from it. * marks the point of attachment. Cbz = O=C(OCc1ccccc1)*

Assays:
SARS virus (FFM-1) = type: cell-based; details: Vero cells, 40 μM, 48 hours
Cytomegalovirus = details: HFL1 cells, 20 or 40 μM, seven days after infection
[1] = test system: Chinese hamster CHL cells; test: Chromosomal screening test for mutagenicity in mammalian cells; details: positive control, 500 μg/ml, short treatment, +S9 mix
SRp75, SRp55, and SRp40 = test: Degradation of HA-tagged SR proteins in Flp-In-293 cells, Western blot; type: cell-based, human; details: 10 μM, ten hours
Description: FIG. 1B: Degradation of SR protein. Plasmids for the SRp75, SRp55, and SRp40 genes were fused with HA tag and introduced into Flp-In-293 cells. MG132 (474790; purchased from CALBIOCHEM) was added to the cells at a final concentration of 10 μM. The cells were lysed and heat-denatured. The resulting protein sample was separated by SDS-PAGE, followed by Western analysis using a rabbit anti-HA antibody as the primary antibody and a donkey anti-rabbit IgG antibody as the secondary antibody.
Using Genejuice, 1 μg each of the plasmids for the SRp75, SRp55, and SRp40 genes fused with HA tag (HA-SRp75, HA-SRp55, and HA-SRp40; gifts from Dr. Woan-Yuh TARN), were introduced into Flp-In-293 cells derived from human fetal kidney. After 36 hours, MG132 (474790; purchased from Calbiochem), a ubiquitin proteasome inhibitor, was added at a final concentration of 10 μM. After ten hours, the cells were lysed with SDS-PAGE sample buffer and heat-denatured. The resulting lysate was used as a protein sample. Using the same procedures as described above, the sample was fractionated by SDS-PAGE, and analyzed by Western blotting using a rabbit anti-HA antibody (H1803; purchased from Santa Cruz) as a primary antibody and a donkey anti-rabbit IgG antibody (NA9340; purchased from Amersham) as a secondary antibody.

HIV = HIV infection experiment in MT-4 cells, HIVp24 by Lumipulse ELISA; details: MT-4 cells, 5, 10, or 20 μM, supernatant after 48 hours
SRPK1 or SRPK2 = test: Inhibition of SRPK1 or SRPK2 phosphorylation activity by SRPIN-1 analogs (FIG. 5A); type: biochemical; details: 10 μM in DMSO, 30° C., 20 minutes
Description: FIG. 5A: Evaluation of the SRPK-inhibiting activities of SRPIN-1 and analogs thereof.
The same procedure as described in Example 4B was used to determine whether SRPIN-1 analogs had the activity of inhibiting the phosphorylation activity of SRPK1 and SRPK2. Each SRPIN-1 analog (10 μM; in DMSO) was incubated with 1 μg of purified recombinant SRPK1 or SRPK2 protein, which was expressed in E. coli, in a reaction buffer (400 μM HEPES (pH 7.5), 100 μM MgCl2, 200 μM ATP, […] [γ-^32P] ATP, and 1 mg/ml RS peptide (SEQ ID NO: 5)) in a 30° C. water bath for 20 minutes.
After RS peptide was incubated with SRPK1 or SRPK2 for 20 minutes, the reaction solution was dropped onto P81 phosphocellulose membrane (P81; Whatman) and the membrane was washed three times for ten minutes with 5% phosphoric acid solution. After washing, ^32P radioactivity on the P81 membrane was determined using a liquid scintillation counter.

Row | SMILES | effect in suppressing HIV replication (HIVp24) (HIV) | inhibitory effect on the phosphorylation activity of SRPK1 and/or SRPK2 (SRPK1 or SRPK2) | also measured
1 | O=C(Nc1ccccc1N1CCCCC1)c1ccncc1 [Compound No. 349, N-[2-(1-piperidinyl)phenyl]isonicotinamide] | – | – | SARS virus propagation (plaque assay) (SARS virus (FFM-1)): significantly suppressed SARS virus propagation; morphological changes and cell death caused by cytomegalovirus infection (Cytomegalovirus): suppressed the abnormal morphological changes and cell death caused by cytomegalovirus infection
2 | CN(C)N=O [DMN, dimethylnitrosamine, reference compound] | – | – | frequency of occurrence of cells with chromosomal abnormalities [1]: 52.0%; frequency of occurrence of cells with chromosomal abnormalities (number of cells) ([1]; 50 metaphasic cells): 26 cells
3 | CC(C)C[C@@H](C=O)NC(=O)[C@H](CC(C)C)NC(=O)[C@H](CC(C)C)NC(=O)OCc1ccccc1 [MG132] (Cbz-Leu-Leu-Leu-aldehyde) | – | – | degradation of SR proteins (anti-HA signal) (SRp75, SRp55, and SRp40): inhibited degradation of SR75, SR55, and SR40 proteins
4 | O=C(Nc1cc(Cl)ccc1N1CCCCC1)c1ccncc1 [compound 341, N-[5-chloro-2-(1-piperidinyl)phenyl]isonicotinamide] | strong effects in suppressing HIV propagation | – | –
5 | Cc1ccc(N2CCCCC2)c(NC(=O)c2ccncc2)c1 [compound 342, N-[5-methyl-2-(1-piperidinyl)phenyl]isonicotinamide] | strong effects in suppressing HIV propagation | – | –
6 | O=C(Nc1cc(C(F)(F)F)ccc1N1CCCCC1)c1cccnc1 [compound 343, N-[2-(1-piperidinyl)-5-(trifluoromethyl)phenyl]nicotinamide] | strong effects in suppressing HIV propagation | – | –
7 | O=C(Nc1cc(C(F)(F)F)ccc1N1CCCCC1)c1ccc([N+](=O)[O-])cc1 [compound 345, N-[2-(1-piperidinyl)-5-(trifluoromethyl)phenyl]-4-nitrobenzamide] | strong effects in suppressing HIV propagation | – | –
8 | CCN(CC)c1ccc(C(F)(F)F)cc1NC(=O)c1ccncc1 [compound 347, N-[2-diethylamino-5-(trifluoromethyl)phenyl]isonicotinamide] | strong effects in suppressing HIV propagation | – | –
9 | O=C(Nc1cc(F)ccc1N1CCCCC1)c1ccncc1 [compound 348, N-[5-fluoro-2-(1-piperidinyl)phenyl]isonicotinamide] | strong effects in suppressing HIV propagation | – | –
10 | O=C(Nc1cccc(C(F)(F)F)c1)c1ccncc1 [compound 608, N-[3-(trifluoromethyl)phenyl]isonicotinamide] | strong effects in suppressing HIV propagation | – | –
11 | O=C(Nc1cc(C(F)(F)F)ccc1Br)c1ccncc1 [compound 612, N-[2-bromo-5-(trifluoromethyl)phenyl]isonicotinamide] | – | strong inhibitory effect | –
12 | C[C@H]1CCCCN1c1ccc(C(F)(F)F)cc1NC(=O)c1ccncc1 [compound 613, (S)—N-[2-(2-methyl-1-piperidinyl)-5-(trifluoromethyl)phenyl]isonicotinamide] | strong effects in suppressing HIV propagation | strong inhibitory effect | –
13 | COc1ccc(C(=O)Nc2cc(C(F)(F)F)ccc2N2CCCCC2)cc1 [compound 615, N-[2-(1-piperidinyl)-5-(trifluoromethyl)phenyl]-4-methoxybenzamide] | strong effects in suppressing HIV propagation | strong inhibitory effect | –
14 | FC(F)(F)c1ccc(N2CCCCC2)c(NC(=S)c2ccncc2)c1 [compound 616, N-[2-(1-piperidinyl)-5-(trifluoromethyl)phenyl]isonicotinthioamide] | strong effects in suppressing HIV propagation | – | –
15 | O=C(Nc1cc(C(F)(F)F)ccc1N1CCCCCC1)c1ccncc1 [compound 618, N-[2-(1-hexahydro-1H-azepinyl)-5-(trifluoromethyl)phenyl]isonicotinamide] | strong effects in suppressing HIV propagation | strong inhibitory effect | –
16 | O=C(Nc1cc(C(F)(F)F)ccc1N1CCc2ccccc21)c1ccncc1 [compound 619, N-[2-(1-indolinyl)-5-(trifluoromethyl)phenyl]isonicotinamide] | strong effects in suppressing HIV propagation | strong inhibitory effect | –
17 | O=C(Nc1cc(C(F)(F)F)ccc1N1Cc2ccccc2C1)c1ccncc1 [compound 620, N-[2-(2-isoindolinyl)-5-(trifluoromethyl)phenyl]isonicotinamide] | strong effects in suppressing HIV propagation | – | –
18 | O=C(Nc1cc(C(F)(F)F)ccc1N1CCc2ccccc2C1)c1ccncc1 [compound 621, N-[2-(1,2,3,4-tetrahydroisoquinolin-2-yl)-5-(trifluoromethyl)phenyl]isonicotinamide] | – | strong inhibitory effect | –
19 | Cc1ccc(S(=O)(=O)Nc2cc(C(F)(F)F)ccc2N2CCCCC2)cc1 [compound 622, N-[2-(1-piperidinyl)-5-(trifluoromethyl)phenyl]-p-toluenesulfonamide] | strong effects in suppressing HIV propagation | – | –
20 | O=C(NC(=S)Nc1ccc(I)cc1Cl)c1cccnc1 [compound 623] | strong effects in suppressing HIV propagation | – | –
21 | O=C(NC(=S)Nc1cc(C(F)(F)F)ccc1N1CCCCC1)c1cccnc1 [compound 624, 1-nicotinoyl-3-[2-(1-piperidinyl)-5-(trifluoromethyl)phenyl]thiourea] | strong effects in suppressing HIV propagation | strong inhibitory effect | –
22 | O=C(NC(=S)Nc1cccc(C(F)(F)F)c1)c1cccnc1 [compound 625] | strong effects in suppressing HIV propagation | strong inhibitory effect | –
23 | O=C(NC(=S)Nc1ccccc1)c1cccnc1 [compound 626] | strong effects in suppressing HIV propagation | – | –
